Laboratory results taken from publication PMC6199744, “Development of Chemical Proteomics for the Folateome and Analysis of the Kinetoplastid Folateome” (ACS Infectious Diseases, 2018).
Read-outs that look alike come from different tables or passages of the source.

How the values were obtained:
[1] = system: glutamate 5′-kinase (LmjF.26.2710); test: Multitargeted bead mixture competition; assay type: binding, Leishmania; conditions: for fold change vs vehicle control / fold change: protein LMJF.26.2710 GLUTAMATE 5-KINASE, PUTATIVE; for fold change: vehicle control = 1
TB927.8.6460 = test: Multitargeted bead mixture competition; assay type: binding, T. brucei; conditions: for fold change: CONSERVED, vehicle control = 1
[2] = molecular target: T1, HeLa cell extract proteins (Homo sapiens, UniProt O00462); assay type: binding
T1 construct: endogenous in cells; host or cells: HeLa cell extract
T1 sequence (O00462 18-879): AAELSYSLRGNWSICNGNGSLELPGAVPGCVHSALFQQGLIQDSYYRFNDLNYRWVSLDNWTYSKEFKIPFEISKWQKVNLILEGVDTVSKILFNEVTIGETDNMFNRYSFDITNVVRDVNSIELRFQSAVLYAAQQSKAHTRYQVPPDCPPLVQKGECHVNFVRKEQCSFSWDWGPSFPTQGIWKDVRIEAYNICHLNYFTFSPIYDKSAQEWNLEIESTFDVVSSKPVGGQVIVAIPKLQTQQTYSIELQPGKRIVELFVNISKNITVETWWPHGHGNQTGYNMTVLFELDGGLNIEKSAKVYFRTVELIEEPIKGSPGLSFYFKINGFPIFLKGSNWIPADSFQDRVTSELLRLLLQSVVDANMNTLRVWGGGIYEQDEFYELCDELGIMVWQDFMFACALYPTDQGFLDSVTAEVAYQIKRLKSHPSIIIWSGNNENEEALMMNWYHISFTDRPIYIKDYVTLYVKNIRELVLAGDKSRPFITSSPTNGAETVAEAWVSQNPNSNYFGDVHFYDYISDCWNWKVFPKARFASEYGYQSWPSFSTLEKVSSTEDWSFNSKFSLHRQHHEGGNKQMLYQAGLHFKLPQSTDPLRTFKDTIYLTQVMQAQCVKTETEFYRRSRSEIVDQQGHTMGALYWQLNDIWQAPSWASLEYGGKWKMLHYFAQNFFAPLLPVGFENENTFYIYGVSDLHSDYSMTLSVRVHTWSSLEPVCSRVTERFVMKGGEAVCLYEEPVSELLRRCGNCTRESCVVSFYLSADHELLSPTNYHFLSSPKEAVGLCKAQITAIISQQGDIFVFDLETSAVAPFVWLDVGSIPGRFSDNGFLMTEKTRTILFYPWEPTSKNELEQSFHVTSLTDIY

[3] = molecular target: T. brucei lysate proteins (Trypanosoma brucei brucei, UniProt Q04933); assay type: binding
[4] = molecular target: T. brucei lysate proteins (Trypanosoma brucei brucei, UniProt P12861); assay type: binding
[5] = molecular target: T. brucei lysate proteins (Trypanosoma brucei brucei, UniProt P13377); assay type: binding
[6] = molecular target: T. brucei lysate proteins (Trypanosoma brucei brucei, UniProt P07752); assay type: binding
PTR1 = molecular target: T2, PTR1 (Leishmania major, UniProt Q01782); test: biochemical; conditions: competing free ligand 100 μM; bead = immobilized compound of the row; L. major lysate; read-out: % Inhibition of protein binding to bead, PTR-1, L. major
T2 sequence (Q01782 1-288): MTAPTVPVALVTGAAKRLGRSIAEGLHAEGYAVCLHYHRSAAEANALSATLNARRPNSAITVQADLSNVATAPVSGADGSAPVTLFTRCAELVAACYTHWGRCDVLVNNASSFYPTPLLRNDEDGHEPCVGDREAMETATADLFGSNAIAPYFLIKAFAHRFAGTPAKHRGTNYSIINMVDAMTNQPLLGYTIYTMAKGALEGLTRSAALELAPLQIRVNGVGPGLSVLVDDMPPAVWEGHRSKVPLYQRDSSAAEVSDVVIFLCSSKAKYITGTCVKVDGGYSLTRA

[7] = molecular target: T3, HeLa cell extract proteins (Homo sapiens, UniProt P17655); assay type: binding; conditions: protein CAPN2; HeLa
T3 construct: endogenous in cells; host or cells: HeLa cell extract
T3 sequence (P17655 1-700): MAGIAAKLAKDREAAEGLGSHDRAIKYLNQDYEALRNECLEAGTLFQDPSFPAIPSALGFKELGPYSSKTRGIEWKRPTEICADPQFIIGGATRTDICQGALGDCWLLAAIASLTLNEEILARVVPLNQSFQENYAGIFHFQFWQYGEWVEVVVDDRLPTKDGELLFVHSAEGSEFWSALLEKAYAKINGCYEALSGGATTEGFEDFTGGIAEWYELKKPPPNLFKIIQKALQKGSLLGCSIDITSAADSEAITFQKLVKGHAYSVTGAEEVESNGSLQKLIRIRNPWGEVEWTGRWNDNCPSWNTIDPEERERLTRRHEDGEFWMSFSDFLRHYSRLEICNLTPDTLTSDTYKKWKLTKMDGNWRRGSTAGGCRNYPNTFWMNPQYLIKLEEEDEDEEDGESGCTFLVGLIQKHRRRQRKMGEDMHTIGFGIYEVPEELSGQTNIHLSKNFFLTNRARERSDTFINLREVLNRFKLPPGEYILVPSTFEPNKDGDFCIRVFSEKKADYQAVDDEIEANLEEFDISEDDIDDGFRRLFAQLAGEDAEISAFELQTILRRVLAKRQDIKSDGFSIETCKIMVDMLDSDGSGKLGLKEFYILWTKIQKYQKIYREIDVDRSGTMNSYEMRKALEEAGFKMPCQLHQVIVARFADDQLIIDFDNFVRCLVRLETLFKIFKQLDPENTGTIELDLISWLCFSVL

[8] = molecular target: T. brucei lysate proteins (Trypanosoma brucei brucei, UniProt P38973); assay type: binding; conditions: protein TB427.10.1070 CELL DIVISION PROTEIN KINASE 2 HOMOLOG 1 (CRK1)
[9] = protein TB427TMP.01.8470 DIHYDROLIPOYL DEHYDROGENASE, vehicle control = 1
[10] = protein TB427.10.10980 HEAT SHOCK PROTEIN 83, vehicle control = 1
[11] = protein TB427.01.3830 GLUCOSE-6-PHOSPHATE ISOMERASE, GLYCOSOMAL, vehicle control = 1
[12] = protein TB927.10.5620 FRUCTOSE-BI[…], GLYCOSOMAL, vehicle control = 1
[13] = HeLa, protein MANBA (BETA-MANNOSIDASE PRECURSOR)

T. brucei lysate proteins (Trypanosoma brucei brucei, UniProt Q04933), sequence (Q04933 whole entry): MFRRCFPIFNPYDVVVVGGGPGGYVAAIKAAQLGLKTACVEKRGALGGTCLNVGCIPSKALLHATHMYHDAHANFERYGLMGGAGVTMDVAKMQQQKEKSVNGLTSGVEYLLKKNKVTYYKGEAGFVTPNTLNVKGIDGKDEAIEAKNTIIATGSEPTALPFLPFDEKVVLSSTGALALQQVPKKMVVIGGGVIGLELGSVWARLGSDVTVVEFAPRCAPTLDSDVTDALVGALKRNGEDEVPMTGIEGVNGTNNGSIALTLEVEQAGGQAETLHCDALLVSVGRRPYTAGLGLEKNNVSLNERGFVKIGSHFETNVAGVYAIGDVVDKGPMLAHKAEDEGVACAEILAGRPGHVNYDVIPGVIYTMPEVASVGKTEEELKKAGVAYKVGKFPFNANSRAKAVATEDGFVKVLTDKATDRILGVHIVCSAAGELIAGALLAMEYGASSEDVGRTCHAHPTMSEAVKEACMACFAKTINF
T. brucei lysate proteins (Trypanosoma brucei brucei, UniProt P13377), sequence (P13377 whole entry): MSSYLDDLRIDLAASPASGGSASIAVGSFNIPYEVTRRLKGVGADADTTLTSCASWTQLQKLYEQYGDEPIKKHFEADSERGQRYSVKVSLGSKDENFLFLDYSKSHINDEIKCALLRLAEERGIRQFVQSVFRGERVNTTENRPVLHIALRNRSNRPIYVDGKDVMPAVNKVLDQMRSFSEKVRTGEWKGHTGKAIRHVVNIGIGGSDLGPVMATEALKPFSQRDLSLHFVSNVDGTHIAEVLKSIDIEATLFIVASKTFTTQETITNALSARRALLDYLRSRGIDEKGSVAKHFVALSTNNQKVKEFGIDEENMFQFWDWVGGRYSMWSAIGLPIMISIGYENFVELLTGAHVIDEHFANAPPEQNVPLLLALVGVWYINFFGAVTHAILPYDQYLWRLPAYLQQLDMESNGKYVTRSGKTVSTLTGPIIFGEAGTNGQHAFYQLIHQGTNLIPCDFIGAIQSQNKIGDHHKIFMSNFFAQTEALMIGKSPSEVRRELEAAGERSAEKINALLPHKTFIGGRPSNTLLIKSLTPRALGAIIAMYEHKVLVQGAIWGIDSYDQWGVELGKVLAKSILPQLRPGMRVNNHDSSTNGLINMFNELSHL
T. brucei lysate proteins (Trypanosoma brucei brucei, UniProt P38973), sequence (P38973 whole entry): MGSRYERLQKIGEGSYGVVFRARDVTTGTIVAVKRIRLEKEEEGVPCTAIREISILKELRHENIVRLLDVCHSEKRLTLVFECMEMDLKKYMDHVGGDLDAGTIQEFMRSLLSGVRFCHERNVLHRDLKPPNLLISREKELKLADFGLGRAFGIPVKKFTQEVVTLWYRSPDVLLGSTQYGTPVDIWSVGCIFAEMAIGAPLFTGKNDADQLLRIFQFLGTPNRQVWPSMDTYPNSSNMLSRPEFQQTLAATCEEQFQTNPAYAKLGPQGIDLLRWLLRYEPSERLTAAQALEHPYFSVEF
T. brucei lysate proteins (Trypanosoma brucei brucei, UniProt P12861), sequence (P12861 whole entry): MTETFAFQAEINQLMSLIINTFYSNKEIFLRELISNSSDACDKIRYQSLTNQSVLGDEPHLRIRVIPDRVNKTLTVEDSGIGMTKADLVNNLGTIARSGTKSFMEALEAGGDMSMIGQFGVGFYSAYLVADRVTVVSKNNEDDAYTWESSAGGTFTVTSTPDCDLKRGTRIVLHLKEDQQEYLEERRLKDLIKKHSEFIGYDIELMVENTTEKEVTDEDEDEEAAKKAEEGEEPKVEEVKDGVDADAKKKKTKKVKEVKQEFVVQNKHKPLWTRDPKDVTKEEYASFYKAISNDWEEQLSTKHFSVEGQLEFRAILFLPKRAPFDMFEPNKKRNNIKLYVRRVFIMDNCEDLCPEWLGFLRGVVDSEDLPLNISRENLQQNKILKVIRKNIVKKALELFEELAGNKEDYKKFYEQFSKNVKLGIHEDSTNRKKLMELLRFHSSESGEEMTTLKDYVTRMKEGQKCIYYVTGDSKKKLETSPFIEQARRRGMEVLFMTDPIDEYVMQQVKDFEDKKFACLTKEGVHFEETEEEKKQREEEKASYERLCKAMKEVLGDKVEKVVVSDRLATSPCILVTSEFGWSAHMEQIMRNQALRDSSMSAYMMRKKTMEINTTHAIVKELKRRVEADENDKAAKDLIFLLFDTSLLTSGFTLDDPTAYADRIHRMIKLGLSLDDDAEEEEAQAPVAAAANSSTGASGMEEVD
T. brucei lysate proteins (Trypanosoma brucei brucei, UniProt P07752), sequence (P07752 whole entry): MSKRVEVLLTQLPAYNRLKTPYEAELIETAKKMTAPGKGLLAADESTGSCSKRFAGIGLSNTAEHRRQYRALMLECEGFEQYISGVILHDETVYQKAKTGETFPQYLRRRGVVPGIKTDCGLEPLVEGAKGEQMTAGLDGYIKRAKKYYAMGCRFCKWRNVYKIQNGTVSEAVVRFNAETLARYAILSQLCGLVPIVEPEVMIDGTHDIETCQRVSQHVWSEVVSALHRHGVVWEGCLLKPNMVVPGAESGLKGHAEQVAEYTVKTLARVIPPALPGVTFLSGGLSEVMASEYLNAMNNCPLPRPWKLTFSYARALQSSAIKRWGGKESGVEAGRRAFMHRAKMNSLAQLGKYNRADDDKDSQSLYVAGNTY

Compound	fold change vs vehicle control [1]	fold change vs vehicle control [3, 9]	fold change vs vehicle control [4, 10]	fold change vs vehicle control [5, 11]	fold change vs vehicle control [6, 12]	fold change (TB927.8.6460; protein TB927.8.6460 HY[…])	inhibition at 100 µM (PTR1) [%]	fold change [1]	fold changes relative to vehicle control [7]	fold change - vehicle control [8]	further results
Nc1nc2c(c(=O)[nH]1)N(C=O)C(CNc1ccc(C(=O)N[C@@H](CCC(=O)O)C(=O)O)cc1)CN2 (stereo partly drawn) [LEU, leucovorin]	1.15	0.93	1.64	1.22	1.22	–	–	–	–	–	fold change (TB927.8.6460; protein TB927.8.6460 HYPOTHETICAL PROTEIN): 0.84; fold changes relative to vehicle control ([2]; HeLa, protein MANBA (BETA-M[…])): 1.01
Nc1nc2[nH]cc(CCc3ccc(C(=O)N[C@@H](CCC(=O)O)C(=O)O)cc3)c2c(=O)[nH]1 [PTX, pemetrexed]	0.14	–	–	–	–	0.66	–	–	–	–	association with glutamate 5′-kinase (LmjF.26.2710) ([1]; bead mixture, Leishmania lysates): strongly associated; fold changes relative to vehicle control [2]: 0.71; fold change vs vehicle control [3]: 0.97; fold change vs vehicle control [4]: 0.76; fold change vs vehicle control [5]: 0.85; fold change vs vehicle control [6]: 1.11
CCCCCCOc1ccc(Cc2cnc(N)nc2N)cc1 [compound 1]	–	–	–	–	–	–	< 50	1.07	0.97	0.76	–
CCCCCCOc1cccc(Cc2cnc(N)nc2N)c1 [compound 2]	–	–	–	–	–	–	< 50	1.07	1.23	0.86	–
Nc1nc2cccc(-c3ccccc3)c2n1Cc1ccc(Cl)c(Cl)c1 [compound 3]	–	–	–	–	–	–	< 50	1.05	0.91	0.91	percentage of competition from bead binding (TB927.8.6460; multitargeted bead mixture, free ligand 100 μM, T. brucei lysate, TB927.8.6460): 15%
NCCOCCOCC(=O)Nc1nc2ncc(CNc3ccc(C(=O)NC(CCC(=O)O)C(=O)O)cc3)nc2c(=O)[nH]1 (stereo not drawn) [compound 6]	1.06	0.97	1.41	0.98	1.2	1.03	–	–	–	–	fold changes relative to vehicle control [2, 13]: 0.71
NCCCNc1ccc(C(=O)NC(CCC(=O)O)C(=O)O)cc1 (stereo not drawn) [compound 7]	1	1.05	1	0.88	1.08	1.04	–	–	–	–	fold changes relative to vehicle control [2, 13]: 0.91
